Reference: patent US11291205B2, “Microbiocidal picolinamide derivatives” (Syngenta Participations AG, priority 2017, dated 2022)

How the values were obtained:
[1] = tested on: Mycosphaerella arachidis (Cercospora arachidicola); assay: Mycosphaerella arachidis (Cercospora arachidicola) / liquid culture (early leaf spot); type: cell-based; settings: 96 h, 200 ppm in the formulation, inhibition of growth determined photometrically 4-5 days after application, compared to untreated control, read-out: disease control
Experimental: (§1) Mycosphaerella arachidis (Cercospora arachidicola)/Liquid Culture (Early Leaf Spot) Conidia of the fungus from cryogenic storage are directly mixed into nutrient broth (PDB potato dextrose broth). After placing a (DMSO) solution of test compound into a microtiter plate (96-well format), the nutrient broth containing the fungal spores is added. The test plates are incubated at 24° C. and the inhibition of growth is determined photometrically 4-5 days after application.

[2] = tested on: Glomerella lagenarium (Colletotrichum lagenarium); assay: Glomerella lagenarium (Colletotrichum lagenarium) / liquid culture (anthracnose); type: cell-based; settings: Colletotrichum orbiculare, 72 h, 200 ppm in the formulation, inhibition of growth measured photometrically 3 to 4 days after application, compared to untreated control, read-out: disease control
Experimental: as §1, with “Glomerella lagenarium (Colletotrichum lagenarium)/Liquid” for “Mycosphaerella arachidis (Cercospora arachidicola)/Liquid”, “(Anthracnose)” for “(Early Leaf Spot)”, “measured” for “determined”, “3 to 4” for “4-5”

[3] = tested on: Botryotinia fuckeliana (Botrytis cinerea); assay: Botryotinia fuckeliana (Botrytis cinerea) / liquid culture (gray mould); type: cell-based; settings: 72 h, 200 ppm in the formulation, inhibition of growth determined photometrically 3-4 days after application, compared to untreated control, read-out: disease control
Experimental: as §1, with “Botryotinia fuckeliana (Botrytis cinerea)/Liquid” for “Mycosphaerella arachidis (Cercospora arachidicola)/Liquid”, “(Gray Mould)” for “(Early Leaf Spot)”, “(Vogels” for “(PDB potato dextrose”, “3-4” for “4-5”

[4] = tested on: Mycosphaerella graminicola (Septoria tritici); assay: Mycosphaerella graminicola (Septoria tritici) / liquid culture (Septoria blotch); type: cell-based; settings: Zymoseptoria tritici, 96 h, 200 ppm in the formulation, inhibition of growth determined photometrically 4 to 5 days after application, compared to untreated control, read-out: disease control
Experimental: as §1, with “graminicola (Septoria tritici)/Liquid” for “arachidis (Cercospora arachidicola)/Liquid”, “(Septoria Blotch)” for “(Early Leaf Spot)”, “4 to 5” for “4-5”

[5] = tested on: Monographella nivalis (Microdochium nivale); assay: Monographella nivalis (Microdochium nivale) / liquid culture (foot rot cereals); type: cell-based; settings: 96 h, 200 ppm in the formulation, inhibition of growth determined photometrically 4-5 days after application, compared to untreated control, read-out: disease control
Experimental: as §1, with “Monographella nivalis (Microdochium nivale)/Liquid” for “Mycosphaerella arachidis (Cercospora arachidicola)/Liquid”, “(Foot Rot Cereals)” for “(Early Leaf Spot)”

[6] = tested on: Blumeria graminis f. Sp. tritici (Erysiphe graminis f. Sp. tritici); assay: Blumeria graminis f. sp. tritici / wheat / leaf disc preventative (powdery mildew on wheat); type: in vivo; settings: 200 ppm in the formulation; wheat leaf segments cv. Kanzler; compared to untreated control; 6-8 days after application
Excerpt: Blumeria graminis f. Sp. tritici (Erysiphe graminis f. Sp. tritici)/Wheat/Leaf Disc Preventative (Powdery Mildew on Wheat) Wheat leaf segments cv. Kanzler are placed on agar in a multiwell plate (24-well format) and sprayed with the test compound formulated with DMSO and Tween20 and diluted in water. The leaf disks are inoculated by shaking powdery mildew infected plants above the test plates 1 day after application.

Compound	inhibition of growth at 200 ppm [1] [%]	inhibition of growth at 200 ppm [2] [%]	inhibition of growth at 200 ppm [3] [%]	inhibition of growth at 200 ppm [4] [%]	inhibition of growth at 200 ppm [5] [%]	disease control [6]
COc1ccnc(C(=O)N[C@@H](C)C(=O)OC2CCC2(c2ccccc2)c2ccccc2)c1O (stereo partly drawn) [I.k.02, (2,2-diphenyl cyclobutyl) (2S)-2-[(3-hydroxy-4-methoxy-pyridine-2-carbonyl)amino]propanoate]	≥ 80	≥ 80	≥ 80	≥ 80	≥ 80	
COc1ccnc(C(=O)N[C@@H](C)C(=O)OC2CCC2c2ccc(F)cc2)c1O (stereo partly drawn) [I.e.02, [2-(4-fluorophenyl)cyclobutyl] (2S)-2-[(3-hydroxy-4-methoxy-pyridine-2-carbonyl)amino]propanoate]	≥ 80	≥ 80	≥ 80	≥ 80	≥ 80	
COc1ccnc(C(=O)N[C@@H](C)C(=O)OC2CCC2(c2ccc(F)cc2)c2ccc(F)cc2)c1OC(C)=O (stereo partly drawn) [I.u.14, [2,2-bis(4-fluorophenyl)cyclobutyl] (2S)-2-[(3-acetoxy-4-methoxy-pyridine-2-carbonyl)amino]propanoate]	≥ 80	≥ 80	≥ 80	≥ 80	≥ 80	
COc1ccnc(C(=O)N[C@@H](C)C(=O)OC2CCC2(Cc2ccccc2)c2ccc(F)cc2)c1O (some centres unmarked) [I.au02]	≥ 80	≥ 80	≥ 80	≥ 80	≥ 80	
COc1ccnc(C(=O)N[C@@H](C)C(=O)OC2CCC2(c2ccc(Cl)cc2)C2CC2)c1O (stereo partly drawn) [I.as.02, [2-(4-chlorophenyl)-2-cyclopropyl-cyclobutyl] (2S)-2-[(3-hydroxy-4-methoxy-pyridine-2-carbonyl)amino]propanoate]	≥ 80	≥ 80	≥ 80	≥ 80	≥ 80	
COc1ccnc(C(=O)N[C@@H](C)C(=O)OC2CCC2(c2ccc(F)cc2)c2ccc(F)cc2)c1O (stereo partly drawn) [I.u.02, [2,2-bis(4-fluorophenyl)cyclobutyl] (2S)-2-[(3-hydroxy-4-methoxy-pyridine-2-carbonyl)amino]propanoate]	≥ 80	≥ 80	≥ 80	≥ 80	≥ 80	
COc1ccnc(C(=O)N[C@@H](C)C(=O)OC2CCC2(C)c2ccc(F)cc2)c1O (stereo partly drawn) [I.ad.02, [2-(4-fluoro phenyl)-2-methyl-cyclobutyl] (2S)-2-[(3-hydroxy-4-methoxy-pyridine-2-carbonyl)amino]propanoate]		≥ 80		≥ 80	≥ 80	
COc1ccnc(C(=O)N[C@@H](C)C(=O)OC2CCC2c2ccc(Cl)cc2)c1O (stereo partly drawn) [I.f.02, [2-(4-chlorophenyl)cyclobutyl] (2S)-2-[(3-hydroxy-4-methoxy-pyridine-2-carbonyl)amino]propanoate]	≥ 80	≥ 80	≥ 80	≥ 80	≥ 80	
COc1ccnc(C(=O)N[C@@H](C)C(=O)OC2CCC2(CC(C)C)c2ccc(F)cc2)c1O (stereo partly drawn) [I.at.02, [2-(4-fluorophenyl)-2-isobutyl-cyclobutyl] (2S)-2-[(3-hydroxy-4-methoxy-pyridine-2-carbonyl)amino]propanoate]	≥ 80	≥ 80		≥ 80	≥ 80	
COc1ccnc(C(=O)N[C@@H](C)C(=O)OC2CCC2(c2ccc(Cl)cc2)c2ccc(Cl)cc2)c1O (stereo partly drawn) [I.v.02, [2,2-bis(4-chlorophenyl)cyclobutyl] (2S)-2-[(3-hydroxy-4-methoxy-pyridine-2-carbonyl)amino]propanoate]	≥ 80	≥ 80		≥ 80	≥ 80	
CCC1(c2ccc(F)cc2)CCC1OC(=O)[C@H](C)NC(=O)c1nccc(OC)c1O (stereo partly drawn) [I.ag.02, [2-ethyl-2-(4-fluorophenyl)cyclo-butyl] (2S)-2-[(3-hydroxy-4-methoxy-pyridine-2-carbonyl)amino]propanoate]	≥ 80	≥ 80		≥ 80	≥ 80	
COc1ccnc(C(=O)N[C@@H](C)C(=O)OC2CC2c2ccc(C(C)(C)C)cc2)c1O (stereo partly drawn) [I.ap.01, [2-(4-tert-butylphenyl)cyclopropyl] (2S)-2-[(3-hydroxy-4-methoxy-pyridine-2-carbonyl)amino]propanoate]	≥ 80	≥ 80	≥ 80	≥ 80	≥ 80	
COc1ccnc(C(=O)N[C@@H](C)C(=O)OC2CCC2(c2ccc(C)cc2)c2ccc(C)cc2)c1O (stereo partly drawn) [I.w.02, [2,2-bis(p-tolyl)cyclobutyl](2S)-2-[(3-hydroxy-4-methoxy-pyridine-2-carbonyl)amino]propanoate]	≥ 80	≥ 80		≥ 80	≥ 80	
COc1ccnc(C(=O)N[C@@H](C)C(=O)OC2CCC2c2ccc(F)cc2F)c1O (stereo partly drawn) [I.h.02, [2-(2,4-difluorophenyl)cyclobutyl] (2S)-2-[(3-hydroxy-4-methoxy-pyridine-2-carbonyl)amino]propanoate]	≥ 80	≥ 80	≥ 80	≥ 80	≥ 80	
CCCc1ccc(C2CC2OC(=O)[C@H](C)NC(=O)c2nccc(OC)c2O)cc1 (stereo partly drawn) [I.aq.01, [2-(4-propylphenyl)cyclopropyl] (2S)-2-[(3-hydroxy-4-methoxy-pyridine-2-carbonyl)amino]propanoate]	≥ 80	≥ 80	≥ 80	≥ 80	≥ 80	
COc1ccnc(C(=O)N[C@@H](C)C(=O)OC2CCC2(c2ccc(F)cc2)C2CC2)c1O (stereo partly drawn) [I.ar.02, [2-cyclopropyl-2-(4-fluorophenyl)cyclobutyl] (2S)-2-[(3-hydroxy-4-methoxy-pyridine-2-carbonyl)amino]propanoate]	≥ 80	≥ 80	≥ 80	≥ 80	≥ 80	
COc1ccnc(C(=O)N[C@@H](C)C(=O)OC2CCC2c2ccc(Cl)cc2Cl)c1O (stereo partly drawn) [I.i.02, [2-(2,4-dichlorophenyl)cyclobutyl] (2S)-2-[(3-hydroxy-4-methoxy-pyridine-2-carbonyl)amino]propanoate]	≥ 80	≥ 80	≥ 80	≥ 80	≥ 80	
COc1ccnc(C(=O)N[C@@H](C)C(=O)OC2CCC2(c2cccc(C)c2)c2cccc(C)c2)c1O (stereo partly drawn) [I.s.02, [2,2-bis(m-tolyl)cyclobutyl] (2S)-2-[(3-hydroxy-4-methoxy-pyridine-2-carbonyl)amino]propanoate]	≥ 80	≥ 80		≥ 80	≥ 80	
COc1cccc(C2(c3cccc(OC)c3)CCC2OC(=O)[C@H](C)NC(=O)c2nccc(OC)c2O)c1 (some centres unmarked) [I.t.02]	≥ 80	≥ 80	≥ 80	≥ 80	≥ 80	at least 80%
